Assay results from patent US10294202B2, “Pyrrolidinones as herbicides” (FMC Corporation, priority 2013, dated 2019).

How the values were obtained:
ryegrass, Italian = test: Test A pre-/postemergence herbicide test; type: in vivo, Lolium multiflorum
Method in brief: (§1)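 Both application timings used compounds in a non-phytotoxic solvent plus surfactant. Pre-emergence: soil sprayed directly after seeding into loam/sand. Post-emergence: foliage of 2–10 cm seedlings (1–2 leaves) sprayed. Injury rated ~10 days later, 0–100.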

blackgrass = test: Test A postemergence herbicide test; type: in vivo, Alopecurus myosuroides
Method in brief: (§2)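 Young potted plants in a loam–sand mix, one- to two-leaf stage and 2–10 cm tall, receive the test chemical postemergence and stay in a greenhouse for approximately 10 days. Injury is then judged by eye against untreated plants, scored 0 (none) to 100 (complete control).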

galium = test: Test A postemergence herbicide test; type: in vivo, Galium aparine
Method in brief: as §2

sedge, umbrella = test: Test B flooded paddy test; type: in vivo, Cyperus difformis; conditions: Flood, scale of 0 to 100 where 0 is no effect and 100 is complete control
Method in brief: (§3)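 Visual ratings from 0, meaning no effect, up to 100, meaning complete control, were made by comparison with untreated controls 13 to 15 days after treatment. Test compounds went straight into floodwater standing 3 cm over the soil of pots holding 2-leaf seedlings.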

barnyardgrass [1] = test: Test B flooded paddy test; type: in vivo, Echinochloa crus-galli; conditions: Flood, scale of 0 to 100 where 0 is no effect and 100 is complete control
Method in brief: as §3

giant foxtail = test: Test A pre-/postemergence herbicide test; type: in vivo, Setaria faberii
Method in brief: as §1

corn = test: Test A pre-/postemergence herbicide test; type: in vivo, Zea mays; conditions: Postemergence
Method in brief: as §1

ducksalad = test: Test B flooded paddy test; type: in vivo, Heteranthera limosa; conditions: Flood, scale of 0 to 100 where 0 is no effect and 100 is complete control
Method in brief: as §3

barnyardgrass [2] = test: Test A pre-/postemergence herbicide test; type: in vivo, Echinochloa crus-galli
Method in brief: as §1

wheat = test: Test A pre-/postemergence herbicide test; type: in vivo, Triticum aestivum; conditions: Postemergence
Method in brief: as §1

pigweed = test: Test A pre-/postemergence herbicide test; type: in vivo, Amaranthus retroflexus
Method in brief: as §1

ragweed = test: Test A pre-/postemergence herbicide test; type: in vivo, Ambrosia elatior
Method in brief: as §1

kochia = test: Test A pre-/postemergence herbicide test; type: in vivo, Kochia scoparia
Method in brief: as §1

rice = test: Test B flooded paddy test; type: in vivo, Oryza sativa; conditions: Flood, scale of 0 to 100 where 0 is no effect and 100 is complete control
Method in brief: as §3

[3] = 125 g ai/ha, visual rating, 0 to 100 scale, 0 no effect, 100 complete control, approximately 10 days, preemergence
[4] = Postemergence, 125 g ai/ha, 0 to 100 scale, 0 is no effect, 100 is complete control
[5] = preemergence, 500 g ai/ha, 0 to 100 scale, 0 is no effect and 100 is complete control
[6] = 125 g ai/ha, 0 to 100 scale, 0 is no effect, 100 is complete control
[7] = Postemergence, 125 g ai/ha, visual rating on 0 to 100 scale (0 no effect, 100 complete control), approx. 10 days
[8] = Postemergence, 500 g ai/ha, 0 to 100 scale (0 no effect, 100 complete control)
[9] = Preemergence, 125 g ai/ha, 0 to 100 scale where 0 is no effect and 100 is complete control
[10] = Preemergence, 500 g ai/ha, visual rating on 0 to 100 scale (0 no effect, 100 complete control)
[11] = 125 g ai/ha, visual rating on 0 to 100 scale (0 no effect, 100 complete control), approx. 10 days
[12] = 500 g ai/ha, 0 to 100 scale (0 no effect, 100 complete control)

O=C1NCC(c2ccc(-c3ccccc3C(F)(F)F)cc2)C1C(=O)Nc1cccc(F)c1F (stereo not drawn) [Compound 236]
Plant response rating, Ryegrass, Italian (ryegrass, Italian; [3]): 0 | Plant response rating, Ryegrass, Italian (ryegrass, Italian; [4]): 0 | Ryegrass, Italian plant response rating (0 to 100 scale, 0 is no effect, 100 is complete control) (ryegrass, Italian; Postemergence, 500 g ai/ha): 0 | Plant response rating, Ryegrass, Italian (ryegrass, Italian; [5]): 50 | Plant response rating, Blackgrass (blackgrass; [6]): 0 | Blackgrass plant response rating (0 to 100 scale, 0 is no effect, 100 is complete control) (blackgrass; 500 g ai/ha): 0 | Plant response rating, Galium (galium; [6]): 0 | Galium plant response rating (0 to 100 scale, 0 is no effect, 100 is complete control) (galium; 500 g ai/ha): 0 | Plant response rating, Sedge, Umbrella (sedge, umbrella; 1000 g ai/ha): 0 | Plant response rating, Barnyardgrass (barnyardgrass [1]; 1000 g ai/ha): 40 | Plant response rating, Foxtail, Giant (giant foxtail; [3]): 0 | Plant response rating, Foxtail, Giant (giant foxtail; [4]): 0 | Foxtail, Giant plant response rating (0 to 100 scale, 0 is no effect, 100 is complete control) (giant foxtail; Postemergence, 500 g ai/ha): 0 | Plant response rating, Foxtail, Giant (giant foxtail; [5]): 0 | Plant response rating, Corn (corn; [6]): 0 | Corn plant response rating (0 to 100 scale, 0 is no effect, 100 is complete control) (corn; 500 g ai/ha): 0 | Plant response rating, Ducksalad (ducksalad; 1000 g ai/ha): 70 | Plant response rating, Barnyardgrass (barnyardgrass [2]; [3]): 0 | Plant response rating, Barnyardgrass (barnyardgrass [2]; [4]): 0 | Barnyardgrass plant response rating (0 to 100 scale, 0 is no effect, 100 is complete control) (barnyardgrass [2]; Postemergence, 500 g ai/ha): 0 | Plant response rating, Barnyardgrass (barnyardgrass [2]; [5]): 0 | Plant response rating, Wheat (wheat; [6]): 0 | Wheat plant response rating (0 to 100 scale, 0 is no effect, 100 is complete control) (wheat; 500 g ai/ha): 0 | Plant response rating, Pigweed (pigweed; [3]): 0 | Plant response rating, Pigweed (pigweed; [4]): 0 | Pigweed plant response rating (0 to 100 scale, 0 is no effect, 100 is complete control) (pigweed; Postemergence, 500 g ai/ha): 0 | Plant response rating, Pigweed (pigweed; [5]): 0 | Plant response rating, Ragweed (ragweed; [3]): 0 | Plant response rating, Ragweed (ragweed; [4]): 0 | Ragweed plant response rating (0 to 100 scale, 0 is no effect, 100 is complete control) (ragweed; Postemergence, 500 g ai/ha): 0 | Plant response rating, Ragweed (ragweed; [5]): 30 | Plant response rating, Kochia (kochia; [3]): 0 | Plant response rating, Kochia (kochia; [4]): 0 | Kochia plant response rating (0 to 100 scale, 0 is no effect, 100 is complete control) (kochia; Postemergence, 500 g ai/ha): 0 | Plant response rating, Kochia (kochia; [5]): 0 | Plant response rating, Rice (rice; 1000 g ai/ha): 0

O=C1NCC(c2cccc(Oc3ccccc3)c2)C1C(=O)Nc1ccc(F)c(F)c1F (stereo not drawn) [Compound 333]
Plant response rating, Ryegrass, Italian (ryegrass, Italian; [7]): 0 | Plant response rating, Ryegrass, Italian (ryegrass, Italian; [8]): 30 | Plant response rating, Ryegrass, Italian (ryegrass, Italian; [9]): 0 | Ryegrass, Italian plant response rating (ryegrass, Italian; [10]): 20 | Plant response rating, Blackgrass (blackgrass; [11]): 0 | Plant response rating, Blackgrass (blackgrass; [12]): 30 | Plant response rating, Galium (galium; [11]): 0 | Plant response rating, Galium (galium; [12]): 40 | Plant response rating, Sedge, Umbrella (sedge, umbrella; 500 g ai/ha): 0 | Plant response rating, Barnyardgrass (barnyardgrass [1]; 500 g ai/ha): 0 | Plant response rating, Foxtail, Giant (giant foxtail; [7]): 50 | Plant response rating, Foxtail, Giant (giant foxtail; [8]): 80 | Plant response rating, Foxtail, Giant (giant foxtail; [9]): 80 | Foxtail, Giant plant response rating (giant foxtail; [10]): 90 | Plant response rating, Corn (corn; [11]): 0 | Plant response rating, Corn (corn; [12]): 20 | Plant response rating, Ducksalad (ducksalad; 500 g ai/ha): 20 | Plant response rating, Barnyardgrass (barnyardgrass [2]; [7]): 20 | Plant response rating, Barnyardgrass (barnyardgrass [2]; [8]): 60 | Plant response rating, Barnyardgrass (barnyardgrass [2]; [9]): 50 | Barnyardgrass plant response rating (barnyardgrass [2]; [10]): 90 | Plant response rating, Wheat (wheat; [11]): 0 | Plant response rating, Wheat (wheat; [12]): 20 | Plant response rating, Pigweed (pigweed; [7]): 0 | Plant response rating, Pigweed (pigweed; [8]): 20 | Plant response rating, Pigweed (pigweed; [9]): 0 | Pigweed plant response rating (pigweed; [10]): 0 | Plant response rating, Ragweed (ragweed; [7]): 0 | Plant response rating, Ragweed (ragweed; [8]): 20 | Plant response rating, Ragweed (ragweed; [9]): 0 | Ragweed plant response rating (ragweed; [10]): 0 | Plant response rating, Kochia (kochia; [7]): 0 | Plant response rating, Kochia (kochia; [8]): 20 | Plant response rating, Kochia (kochia; [9]): 0 | Kochia plant response rating (kochia; [10]): 0 | Plant response rating, Rice (rice; 500 g ai/ha): 0
